Data reported in patent US9273318B2, “Induction of thyroid iodide-handling gene expression in human cancers” (THE JOHNS HOPKINS UNIVERSITY, priority 2008, dated 2016).
“Also recorded” adds a separate entry of the source. Like-named read-outs stand apart in the source and are kept apart here.

Legend:
NIS protein [1] = assay: Flow cytometry and immunofluorescence of NIS protein expression, KAT10 cells; assay type: cell-based, human; settings: U0126 10 μM, Akti IV 2 μM, control 8.8%
Description: FIG. 14A-14C. […] FIG. 14A) Flow cytometric measurement of NIS protein expression. […] NIS protein levels were measured by flow cytometry. The blue frames indicate the cells expressing NIS protein, including dead (right upper quadrant; positive for both 7-AAD and NIS) and living (right lower quadrant, positive only for NIS) cells. FIG. 14B) Immunofluorescent localization of NIS. After a 30-h combined treatment with both Akti IV and U0126 (as in FIG. 14A), cells were analyzed by immunofluorescent microscopy using anti-NIS and FITC-coupled secondary antibody and double immunofluorescence with the red color representing 7-AAD nuclear staining and the green color representing NIS expression and localization. […] FIG. 14C) In vitro radioiodide uptake. […] Cells were subsequently incubated with 1 μCi Na125I/0.5 ml/well on 12-well plates for 1 h. Cells were then washed and harvested for radioactivity measurement using a gamma-counter as described in the Experimental Procedures. Data are expressed as the mean±SD of values from three assays. **, P<0.01, compared with control or empty vector. […]

NIS protein [2] = assay: Flow cytometry and immunofluorescence of NIS protein expression, NPA cells; assay type: cell-based, human; settings: U0126 10 μM, Akti IV 0.5 μM, 30 h, control 3.4%
Description: (§1) FIG. 6A-6D. […] After a serum starvation for 24 h, total RNA was isolated for expression analysis for the indicated thyroid iodide-metabolizing genes. RT-PCR analysis was performed for the expression of NIS in NPA cells. FIG. 6B) Flow cytometric measurement of NIS protein expression. NPA cells were treated with specific inhibitors (upper panel) as described in FIG. 1 or stably transfected with specific siRNAs to knock down BRAF and Akt-1/2, individually or in combination as described in FIG. 3 (lower panel). NIS protein levels were measured by flow cytometry. […] After a 30-h combined treatment with both U0126 and Akti IV (as in FIG. 6B), cells were analyzed by immunofluorescent microscopy using anti-NIS and FITC-coupled secondary antibody and double immunofluorescence with the red color representing 7-AAD nuclear staining and the green color representing NIS expression and localization. […] Cells were then washed and harvested for radioactivity measurement using a gamma-counter as described in the Materials and Methods. Data are expressed as the mean±SD of values from three assays. **, P<0.01, compared with control or empty vector.
(§2) FIG. 14A-14C. […] NIS protein levels were measured by flow cytometry. […] Cells were then washed and harvested for radioactivity measurement using a gamma-counter as described in the Experimental Procedures. […]

KAT10 cells [3] = assay: Radioactive iodide uptake assay, KAT10 cells; assay type: cell-based, human; settings: KAT10 cells treated with inhibitors, 1 μCi Na125I, 1 h
Description: FIG. 14A-14C. […] FIG. 14A) Flow cytometric measurement of NIS protein expression. […] NIS protein levels were measured by flow cytometry. The blue frames indicate the cells expressing NIS protein, including dead (right upper quadrant; positive for both 7-AAD and NIS) and living (right lower quadrant, positive only for NIS) cells. FIG. 14B) Immunofluorescent localization of NIS. After a 30-h combined treatment with both Akti IV and U0126 (as in FIG. 14A), cells were analyzed by immunofluorescent microscopy using anti-NIS and FITC-coupled secondary antibody and double immunofluorescence with the red color representing 7-AAD nuclear staining and the green color representing NIS expression and localization. […] FIG. 14C) In vitro radioiodide uptake. […] Cells were subsequently incubated with 1 μCi Na125I/0.5 ml/well on 12-well plates for 1 h. Cells were then washed and harvested for radioactivity measurement using a gamma-counter as described in the Experimental Procedures. Data are expressed as the mean±SD of values from three assays. **, P<0.01, compared with control or empty vector.
Thyroid cancer cells (1×10^6 cells/well) treated under the indicated conditions were seeded in 12-well plates. […] Cells were collected and radioactivity was counted by a gamma-counter.

[4] = test system: thyroid iodide-handling genes (NIS, TSHR, Tg, TPO, FOXE1, TTF1); assay: RT-PCR / quantitative RT-PCR of thyroid iodide-handling genes, NPA cells; assay type: cell-based, human; settings: U0126 10 μM, Akti IV 0.5 μM, 30 h
[5] = test system: phosphorylation of Akt (p-Akt); assay: Western blotting of phosphorylated Akt in KAT10 cells; settings: Akti IV 2 μM, 30 h
Description: Effects of suppression of the PI3K/Akt and MAP kinase pathways by specific inhibitors on thyroid cancer cells. […] NPA and KAT10 cells were treated with Akti IV at 0.5 and 2 μM, respectively, or with U0126 at 10 μM for 30 h. Cells were lysed for Western blotting assay. The activities of PI3K/Akt and MAP kinase pathways were reflected by the level of phosphorylated Akt and ERK detected with specific anti-phosphorylated Akt (p-Akt) and anti-phosphorylated ERK (p-ERK) antibodies. Immunoblotting with antibody against β-actin was used for quality control.
Cells were lysed in RIPA buffer (Santa Cruz, Calif.). Cellular proteins were resolved by electrophoresis on a SDS-polyacrylamide (10%) gel (SDS-PAGE), transferred onto PVDF membranes (Amersham Pharmacia Biotech, Piscataway, N.J.), and immunoblotted with specific primary antibodies. Anti-BRAF (Sc-166), anti-phospho-Akt-1/2/3 (Sc-7985-R), anti-phospho-ERK (Sc-7383), and anti-Actin (Sc-1616-R) were purchased from Santa Cruz (Santa Cruz, Calif.). Anti-Akt-1 (#2967) and anti-Akt-2 (#2964) were purchased from Cell Signaling Technologies, Inc. (Beverly, Mass.). Antigen-antibody complexes were visualized using HRP-conjugated anti-mouse (Sc-2005, Santa Cruz, Calif.) or anti-rabbit (Sc-2004, Santa Cruz, Calif.) IgG antibodies and ECL Western Blotting Analysis System (Amersham Pharmacia).

NPA cells [6] = assay: MTT cell proliferation assay, NPA cells; settings: 4 μM U0126, 0.2 μM Akti IV, 5-day course
Description: FIG. 1B) Inhibition of cell proliferation by suppression of MAPK and PI3K/Akt pathways achieved with U0126 and Akti IV individually or in combination (U+A) as indicated. MTT assay was performed to evaluate cell proliferation over a 5-day course of treatment with U0126 and Akti IV.
(§4) FIG. 7B) Inhibition of thyroid cancer cell proliferation by suppression of PI3K/Akt and MAP kinase pathways achieved with Akti IV and U0126 individually or in combination (U+A) as indicated. MTT assay was performed to evaluate cell proliferation over a 5-day course of treatment with Akti IV and U0126.

KAT10 cells [7] = assay: MTT cell proliferation assay, KAT10 cells; settings: 4 μM U0126, 1 μM Akti IV, 5-day course
Description: as §4

[8] = test system: thyroid genes (Tg, TSHR, NIS, TTF-1, TTF2); assay: Quantitative real-time PCR of thyroid iodide-metabolizing genes, KAT10 cells; assay type: cell-based, human; settings: U0126 10 μM, Akti IV 2 μM, 30 h
[9] = test system: phosphorylation of Akt (p-Akt); assay: Western blotting of phosphorylated Akt in NPA cells; settings: Akti IV 0.5 μM, 30 h
Description: FIGS. 1A-1C Effects of suppression of the MAPK and PI3K/Akt pathways by specific inhibitors on NPA cells. FIG. 1A) Inhibition of ERK and Akt phosphorylation by suppression of MAPK and PI3K/Akt pathways using the MEK-specific inhibitor U0126 and the Akt-specific inhibitor Akti IV, respectively. NPA cells were treated with U0126 at 10 μM, or with Akti IV at 0.5 μM for 30 h. Cells were lysed for Western blotting assay. The activities of MAPK and PI3K/Akt pathways were reflected by the level of phosphorylated ERK and Akt detected with specific anti-phosphorylated ERK (p-ERK) and anti-phosphorylated Akt (p-Akt) antibodies. Immunoblotting with antibody against β-actin was used for quality control.
Effects of suppression of the PI3K/Akt and MAP kinase pathways by specific inhibitors on thyroid cancer cells. FIG. 7 A) Inhibition of Akt and ERK phosphorylation by suppression of PI3K/Akt and MAP kinase pathways using the Akt-specific inhibitor Akti IV and the MEK-specific inhibitor U0126, respectively. NPA and KAT10 cells were treated with Akti IV at 0.5 and 2 μM, respectively, or with U0126 at 10 μM for 30 h. Cells were lysed for Western blotting assay. The activities of PI3K/Akt and MAP kinase pathways were reflected by the level of phosphorylated Akt and ERK detected with specific anti-phosphorylated Akt (p-Akt) and anti-phosphorylated ERK (p-ERK) antibodies. […]

NPA cells [10] = assay: Radioactive iodide uptake assay, NPA cells; assay type: cell-based, human; settings: NPA cells treated with inhibitors, 1 μCi Na125I, 1 h
Description: as §1, §2

[11] = test system: phosphorylation of ERK (p-ERK); settings: KAT10 cells, U0126 10 μM, 30 h
Text: (§3) FIG. 7A-7C. […] Cells were lysed for Western blotting assay.

[12] = test system: phosphorylation of ERK (p-ERK); settings: NPA cells, U0126 10 μM, 30 h
Text: Cells were lysed for Western blotting assay.
as §3
Cells were lysed in RIPA buffer.

| Compound | NIS expression (cells expressing NIS protein, flow cytometry) (NIS protein [1]) | NIS expression (cells expressing NIS protein, flow cytometry) (NIS protein [2]) | Na125I uptake (KAT10 cells [3]) | expression of iodide-handling genes (NIS, TSHR, Tg, TTF1) [4] | inhibition of phosphorylation of Akt (p-Akt) [5] | inhibition of cell proliferation (MTT) (NPA cells [6]) | inhibition of cell proliferation (MTT) (KAT10 cells [7]) | expression of thyroid genes (Tg, TSHR, NIS, TTF1) [8] | inhibition of phosphorylation of Akt (p-Akt) [9] | radioiodide uptake (NPA cells [10]) | inhibition of phosphorylation of ERK (p-ERK) [11] | inhibition of phosphorylation of ERK (p-ERK) [12] |
| --- | --- | --- | --- | --- | --- | --- | --- | --- | --- | --- | --- | --- |
| CC[n+]1c(/C=C/N(C)c2ccccc2)n(-c2ccccc2)c2ccc(-c3nc4ccccc4s3)cc21.[I-] [Akti IV, Akt inhibitor IV] | 29% | 13.7% | significantly increased | restored; also recorded: induced or dramatically enhanced | strongly inhibited | partially | partially | restored | strongly inhibited | significantly increased | – | – |
| N#CC(=C(/N)Sc1ccccc1N)/C(C#N)=C(\N)Sc1ccccc1N [U0126] | 11.8% | 6% | significantly increased | restored; also recorded: induced or dramatically enhanced | – | partially | partially | restored | – | significantly increased | strongly inhibited | strongly inhibited |
